Results from patent publication US9808434B2, “Compound for treating cancer and diabetes” (CITY OF HOPE, priority 2011, dated 2017).

Key:
[1] = test system: B16 mouse melanoma tumor; assay: Histopathology (IHC) of B16 melanoma tumor sections; type: in vivo; settings: treated vs control tumors
Method: B16 melanoma bearing C57B mice tumor sections were treated without or with COH-SR4, and used for histopathologic analyses.
H&E stain, or hematoxylin and eosin stain, a general gross morphology stain were used. […] Eosin was pink and stained proteins nonspecifically. In a typical tissue, nuclei were stained blue, whereas the cytoplasm and extracellular matrix had varying degrees of pink staining. The pink coloration in the control tumor cells indicated cell proliferation (FIG. 57)
IHC analyses for Ki-67 expression (marker of cellular proliferation), CD31 (angiogenesis marker), and pAMPK (cellular regulator of lipid and glucose metabolism) from tumors in mice of control and COH-SR4-treated groups were carried out. Statistical significance of difference was determined by two-tailed Student's t test. When COH-SR4-treated tumor sections were compared with the control, p<0.001. […] Sections were counterstained with Hematoxylin (blue). Photomicrographs at 40× magnification were acquired using Olympus Provis AX70 microscope. Percent staining was determined by measuring positive immuno-reactivity per unit area. Arrows indicated the areas for positive staining for an antigen. The intensity of antigen staining was quantified by digital image analysis. Bars represented mean+S.E. (n=5); “*” means p<0.001 compared with control.

[2] = test system: A2058 cells; assay: Mitochondrial membrane depolarization, TMRE; type: cell-based, human; settings: 5 μM
Method: Cells (4×10^5/well in 6-well plates) cultured overnight were pre-incubated with the fluorescent indicator of MMP tetramethylrhodamine ester (TMRE, 200 nM) or DMSO control for 30 min at 37° C. in CO2 incubator. Cells were washed with pre-warmed normal DMEM media, and test compounds were added with fresh media for the indicated times. Cells were then trypsinized, collected, centrifuged for 5 min at 800×g, and washed once in pre-warmed PBS-0.2% BSA. Cells were then resuspended in the same buffer prior to flow cytometric analysis. A total of 30,000 cells were counted per sample and data was analyzed by Cyan ADP flow cytometer with excitation/emission of 488 nm/572 nm (Beckman Coulter, Inc., Brea, Calif.). For measurements of membrane potential in isolated mouse liver mitochondria, the organelles were pre-incubated with 200 nM TMRE in MASSRO buffer (MAS buffer supplemented with 10 mM succinate, 1 μM rotenone, and 1 μM oligomycin) for 20 min at 25° C. The mitochondria were centrifuged for 5 min at 3000×g and resuspended in MASSRO buffer. Mitochondria were then added to MASSRO buffer containing the indicated concentrations of COH-SR4, FCCP or DMSO vehicle control and incubated at room temperature for 15 min. […] TMRE fluorescence was measured with a microplate reader (Tecan Infinite M200 Pro, Tecan Group Ltd., Switzerland) using an excitation emission of 545ex/580em. […]

[3] = test system: AMPK; assay: AMPK activation in human melanoma cell lines; type: cell-based; settings: regardless of BRAF, NRAS and LKB1 mutation
Method: (§1) Cell or tissue proteins were extracted with cell lysis buffer (Cell Signaling Technology) and protein concentration was determined using the DC Protein Assay kit (Bio-Rad, Hercules, Calif., USA). Equal amount of proteins (˜40 μg) were loaded onto 4-15% Criterion TGX gels (Bio-Rad, Hercules, Calif.), resolved by SDS-PAGE electrophoresis, and then transferred onto nitrocellulose membranes for immunoblotting. Membranes were blocked with 5% skimmed milk in Tris-buffered saline containing 0.05% Tween 20 before incubation overnight at 4° C. with desired primary antibodies. Immuno-reactive proteins were visualized by peroxidase-labeled secondary antibodies and ECL system (Western Lightning Chemiluminescence Reagent, Perkin-Elmer, Mass., USA). Equal loading of proteins was confirmed by stripping and re-probing the membranes with either β-actin or GAPDH antibodies. Band intensities were quantified using a densitometer (Quantity One, Bio-Rad, Hercules, Calif.).
One of the consequences of mitochondria uncoupling is decrease intracellular ATP production, leading to increased AMP:ATP ratio and triggering activation of the energy-sensitive enzyme AMPK. It has been previously shown that COH-SR4 indirectly activates AMPK in a time- and dose-dependent manner in both HepG2 cells and 3T3-adipocytes. […] In melanomas, mutation rates for BRAF NRAS and LKB1 are 50-70%, 5-30%, and 10%, respectively. […]

[4] = test system: AMPK, ACC, Raptor, TSC2; assay: AMPK-mTOR signaling in lung cancer cells, Western-blot; type: cell-based, human
Method: as §1
AMPK was knocked down by siRNA and assessed the impact on COH-SR4-induced cytotoxicity. […] Thus, the in-vitro analyses of critical signaling proteins of cell proliferation further supported the anti-cancer effects of COH-SR4 in lung cancer cells.

[5] = test system: AMPK, ACC; assay: AMP:ATP ratio and AMPK/ACC phosphorylation in liver of db/db mice; type: in vivo, mouse; settings: 5 weeks
Method: ATP production from cells treated with test compounds were measured using the Luminescent ATP Detection Assay Kit. AMP, ATP and ADP were measured by UV-HPLC.
All animal experiments were carried out in accordance with the protocols approved by the Institutional Animal Care and Use Committee of the City of Hope. Nine-week old male C57BL/6J mice fed on high fat diet (HFD, 60% fat) and 10-week old db/db mice were given COH-SR4 (5 mg/kg B.W.) or vehicle (corn oil) via oral gavage every other day for six and five weeks, respectively. Oral glucose tolerance test was performed on animals after an overnight fast. All other metabolic parameters were measured at the end of study. Liver samples were stained with H&E and Oil Red O.
Total intracellular ATP production in cells treated with either 5 μM COH-SR4 or 5 μM FCCP was measured by bioluminescence assay and expressed as percentage of time-matched vehicle (DMSO) control (FIG. 84A). Intracellular AMP: ATP ratios increased in HepG2 liver carcinoma cells following 1 h treatment with either 5 μM COH-SR4 or 5 μM FCCP (FIG. 84B) and in liver of db/db mice treated with COH-SR4 (5 mg/kg B.W.) for 5 weeks (FIG. 84C). All data represented are mean±SEM, *P<0.05.
Treatment with the AMPK inhibitor Compound C (20 μM) diminished AMPK activation and ACC phosphorylation by either uncoupler COH-SR4 or FCCP (FIG. 84F).

Compound: O=C(Nc1cc(Cl)cc(Cl)c1)Nc1cc(Cl)cc(Cl)c1 [COH-SR4, 1,3-bis(3,5-dichlorophenyl) urea]
- CD31 (angiogenesis marker) [1]: decreased CD31
- Ki-67 expression (cellular proliferation) [1]: decreased Ki67
- pAMPK [1]: increased pAMPK
- mitochondrial membrane depolarization (TMRE fluorescence) [2]: induced mitochondrial membrane depolarization in a time-dependent manner
- activation of AMPK [3]: dose- and time-dependent activation of AMPK
- phosphorylation of AMPK, ACC, Raptor, TSC2 [4]: increased phosphorylation of AMPK (pAMPK)
- intracellular AMP:ATP ratios in liver ([5]; 5 mg/kg B.W.): increased
- AMPK and ACC phosphorylations in liver [5]: Increased AMPK and ACC phosphorylations
